Test results taken from patent US20220193081A1 (Ellamed IP & Services PTE. LTD., priority 2019, published 2022).

Legend:
[1] = tablets or oral suspension; cited from earlier work
[2] = Maximum dissolution study in 50% aqueous ethanol, visual inspection (Example 5); assay type: physicochemical; details: pH 5.5, NaOH
Protocol: Before being placed on storage, and at time points 7, 42 days and 2 months, the concentration of sildenafil in the mixtures were assayed using HPLC. The samples were then stored at either −20° C., 2-8° C. or 25° C. for periods of up to 2 months. Periodically, the samples were visually inspected for evidence of crystallization.

[3] = HPLC assay on storage of sildenafil citrate with equal concentration of sucralose in pH adjusted 50% ethanol (Example 2); assay type: physicochemical
Protocol: At room temperature, a phosphate buffer was prepared by weighing 3.9 g of NaH2PO4.2H2O into a 500 mL volumetric flask and adding approximately 300 mL of purified water until the phosphate fully dissolved. The pH was then adjusted to 7 with the introduction of NaOH and dilute to the requisite volume by the further addition of purified water.
A 50% ethanol mixture was prepared by introducing either purified water, taken from a MilliQ™ unit or phosphate buffer, to equivalent volumes of Ph.Eur. grade absolute alcohol. The pH of the resultant mixture was then adjusted by using either NaOH 1N solutions and/or Sodium Citrate 1N solutions to reach predetermined pH values.
Samples of sucralose were then dissolved in the pH adjusted 50% ethanol, whilst stirred with a magnetic stirrer and a needle, to a predetermined concentration. […] After preparation, the solutions were each filtered through PDVF 0.22 micro filter of 13 mm in size and placed in polypropylene containers of adequate volume.
Before being placed on storage, and at time points 7 and 42 days, the concentration of sildenafil in the mixture was assayed using HPLC. The samples were then stored at either −20° C., 2-8° C. or 25° C. for periods of up to 42 days. Periodically, the samples were visually inspected for evidence of precipitation or crystallization. […]
The samples of 21 mg/ml at a pH of 5.6 were maintained in stability testing at 25° C. for a total of 285 days.

In the case of `CCCc1nn(C)c2c(=O)nc(-c3cc(S(=O)(=O)N4CCN(C)CC4)ccc3OCC)[nH]c12.O=C(O)CC(O)(CC(=O)O)C(=O)O` [sildenafil citrate, 1-[[3-(4,7-Dihydro-1-methyl-7-oxo-3-propyl-1H-pyrazolo[4,3-d]pyrimidin-5-yl)-4-ethoxyphenyl]sulfonyl]-4-methylpiperazine citrate salt], the absolute bioavailability [1] is listed as “about 41%”, the “visual inspection for crystallization” value ([2]; Day 0 51.65 mg/ml, without sucralose, 2-8° C.) is listed as “Prec” and the “visual inspection for crystallization” value ([2]; Day 0 51.65 mg/ml, without sucralose, −20° C.) is listed as “Prec”. For the same compound, the “visual inspection for crystallization” value ([2]; Day 0 82.79 mg/ml, with sucralose, 2-8° C.) was “Prec”, the “visual inspection for crystallization” value ([2]; Day 0 82.79 mg/ml, with sucralose, −20° C.) was “Prec” and the “visual inspection for crystallization” value ([2]; Day 0 123.95 mg/ml, with sucralose, 25° C. (single cell in the row)) was “Prec”. The “concentration of sildenafil by HPLC” value ([3]; 15 mg/ml, pH 5.0, Sodium Citrate, 2-8 ° C., Day 7) was 11050 µg/mL, the “concentration of sildenafil by HPLC” value ([3]; 15 mg/ml, pH 5.0, Sodium Citrate, 25 ° C., Day 7) was 14890 µg/mL and the “concentration of sildenafil by HPLC” value ([3]; 15 mg/ml, pH 5.0, Sodium Citrate, Day 0) was 15220 µg/mL. The “concentration of sildenafil by HPLC” value ([3]; 15 mg/ml, pH 5.2, NaOH, 2-8 ° C., Day 7) was 14990 µg/mL, the “concentration of sildenafil by HPLC” value ([3]; 15 mg/ml, pH 5.2, NaOH, 25 ° C., Day 7) was 15010 µg/mL and the “concentration of sildenafil by HPLC” value ([3]; 15 mg/ml, pH 5.2, NaOH, Day 0) was 15050 µg/mL. The “concentration of sildenafil by HPLC” value ([3]; 15 mg/ml, pH 5.24, NaOH, 50% ethanol/phosphate buffer, 2-8 ° C., Day 7) was 14970 µg/mL, the “concentration of sildenafil by HPLC” value ([3]; 15 mg/ml, pH 5.24, NaOH, 50% ethanol/phosphate buffer, 25 ° C., Day 7) was 15010 µg/mL and the “concentration of sildenafil by HPLC” value ([3]; 15 mg/ml, pH 5.24, NaOH, 50% ethanol/phosphate buffer, Day 0) was 15060 µg/mL. For the same compound, the “concentration of sildenafil by HPLC” value ([3]; 15 mg/ml, pH 5.6, NaOH, 2-8 ° C., Day 7) was 15030 µg/mL, the “concentration of sildenafil by HPLC” value ([3]; 15 mg/ml, pH 5.6, NaOH, 2-8 ° C., Day 42) was 15050 µg/mL and the “concentration of sildenafil by HPLC” value ([3]; 15 mg/ml, pH 5.6, NaOH, 25 ° C., Day 7) was 14930 µg/mL. For the same compound, the “concentration of sildenafil by HPLC” value ([3]; 15 mg/ml, pH 5.6, NaOH, 25 ° C., Day 42) was 14970 µg/mL, the “concentration of sildenafil by HPLC” value ([3]; 15 mg/ml, pH 5.6, NaOH, 50% ethanol/phosphate buffer, 2-8 ° C., Day 7) was 14920 µg/mL and the “concentration of sildenafil by HPLC” value ([3]; 15 mg/ml, pH 5.6, NaOH, 50% ethanol/phosphate buffer, 25 ° C., Day 7) was 14940 µg/mL. The “concentration of sildenafil by HPLC” value ([3]; 15 mg/ml, pH 5.6, NaOH, 50% ethanol/phosphate buffer, Day 0) was 14960 µg/mL, the “concentration of sildenafil by HPLC” value ([3]; 15 mg/ml, pH 5.6, NaOH, Day 0) was 15140 µg/mL and the “concentration of sildenafil by HPLC” value ([3]; 15 mg/ml, pH 5.6, Sodium Citrate, 2-8 ° C., Day 7) was 14800 µg/mL. The “concentration of sildenafil by HPLC” value ([3]; 15 mg/ml, pH 5.6, Sodium Citrate, 2-8 ° C., Day 42) was 15040 µg/mL, the “concentration of sildenafil by HPLC” value ([3]; 15 mg/ml, pH 5.6, Sodium Citrate, 25 ° C., Day 7) was 14790 µg/mL and the “concentration of sildenafil by HPLC” value ([3]; 15 mg/ml, pH 5.6, Sodium Citrate, 25 ° C., Day 42) was 14880 µg/mL. For the same compound, the “concentration of sildenafil by HPLC” value ([3]; 15 mg/ml, pH 5.6, Sodium Citrate, Day 0) was 14920 µg/mL, the “concentration of sildenafil by HPLC” value ([3]; 15 mg/ml, pH 6.01, NaOH, 50% ethanol/phosphate buffer, 2-8 ° C., Day 7) was 14690 µg/mL and the “concentration of sildenafil by HPLC” value ([3]; 15 mg/ml, pH 6.01, NaOH, 50% ethanol/phosphate buffer, 25 ° C., Day 7) was 14830 µg/mL. For the same compound, the “concentration of sildenafil by HPLC” value ([3]; 15 mg/ml, pH 6.01, NaOH, 50% ethanol/phosphate buffer, Day 0) was 14830 µg/mL, the “concentration of sildenafil by HPLC” value ([3]; 15 mg/ml, pH 6.2, NaOH, 2-8 ° C., Day 7) was 10420 µg/mL and the “concentration of sildenafil by HPLC” value ([3]; 15 mg/ml, pH 6.2, NaOH, 25 ° C., Day 7) was 11750 µg/mL. The “concentration of sildenafil by HPLC” value ([3]; 15 mg/ml, pH 6.2, NaOH, Day 0) was 15140 µg/mL, the “concentration of sildenafil by HPLC” value ([3]; 15 mg/ml, pH 6.2, Sodium Citrate, 2-8 ° C., Day 7) was 11110 µg/mL and the “concentration of sildenafil by HPLC” value ([3]; 15 mg/ml, pH 6.2, Sodium Citrate, 25 ° C., Day 7) was 12100 µg/mL. For the same compound, the “concentration of sildenafil by HPLC” value ([3]; 15 mg/ml, pH 6.2, Sodium Citrate, Day 0) was 14750 µg/mL, the “concentration of sildenafil by HPLC” value ([3]; 18 mg/ml, pH 5.2, NaOH, 2-8 ° C., Day 7) was 17890 µg/mL and the “concentration of sildenafil by HPLC” value ([3]; 18 mg/ml, pH 5.2, NaOH, 25 ° C., Day 7) was 17930 µg/mL. For the same compound, the “concentration of sildenafil by HPLC” value ([3]; 18 mg/ml, pH 5.2, NaOH, Day 0) was 18230 µg/mL, the “concentration of sildenafil by HPLC” value ([3]; 18 mg/ml, pH 5.2, Sodium Citrate, Day 0) was 18090 µg/mL and the “concentration of sildenafil by HPLC” value ([3]; 18 mg/ml, pH 5.3, NaOH, 50% ethanol/phosphate buffer, 2-8 ° C., Day 7) was 18050 µg/mL. The “concentration of sildenafil by HPLC” value ([3]; 18 mg/ml, pH 5.3, NaOH, 50% ethanol/phosphate buffer, 25 ° C., Day 7) was 18070 µg/mL, the “concentration of sildenafil by HPLC” value ([3]; 18 mg/ml, pH 5.3, NaOH, 50% ethanol/phosphate buffer, Day 0) was 18070 µg/mL and the “concentration of sildenafil by HPLC” value ([3]; 18 mg/ml, pH 5.6, NaOH, 2-8 ° C., Day 7) was 17860 µg/mL. The “concentration of sildenafil by HPLC” value ([3]; 18 mg/ml, pH 5.6, NaOH, 2-8 ° C., Day 42) was 18070 µg/mL, the “concentration of sildenafil by HPLC” value ([3]; 18 mg/ml, pH 5.6, NaOH, 25 ° C., Day 7) was 17860 µg/mL and the “concentration of sildenafil by HPLC” value ([3]; 18 mg/ml, pH 5.6, NaOH, 25 ° C., Day 42) was 18070 µg/mL. The “concentration of sildenafil by HPLC” value ([3]; 18 mg/ml, pH 5.6, NaOH, Day 0) was 18130 µg/mL, the “concentration of sildenafil by HPLC” value ([3]; 18 mg/ml, pH 5.6, Sodium Citrate, 2-8 ° C., Day 7) was 17820 µg/mL and the “concentration of sildenafil by HPLC” value ([3]; 18 mg/ml, pH 5.6, Sodium Citrate, 2-8 ° C., Day 42) was 17880 µg/mL. For the same compound, the “concentration of sildenafil by HPLC” value ([3]; 18 mg/ml, pH 5.6, Sodium Citrate, 25 ° C., Day 7) was 17820 µg/mL.
